Laboratory results reported in paper PMC7243081 (Slas Discovery, 2019).
Read-outs that look alike come from different tables or passages of the source.

Key:
[1] = target: T1, α1, β2, and γ2s subunits of the rat GABAA receptors (HEK-GABA cells) (Rattus norvegicus, UniProt P18508+P62813+P63138); experiment: QP-DHM blind agonist screen; format: cell-based
GABAA receptor = conditions: cited from earlier work; for IC50: read-out: reported IC50
[2] = target: T1, α1, β2, and γ2s subunits of the rat GABAA receptors (HEK-GABA cells); experiment: Whole-cell electrophysiology recording on HEK-GABA cells; format: cell-based; conditions: electrophysiology vs QP-DHM
[3] = tested on: human α1β2γ2L GABAA receptor subunits in L(tk−) cells; conditions: L(tk−) cells stably transfected with human α1β2γ2L; cited from earlier work
Wild-type HEK cells = conditions: patch clamp; cited from earlier work
[4] = target: GABAA receptor (α1, β2, and γ2s subunits, HEK-GABA) (Rattus norvegicus, UniProt P18508+P62813+P63138); format: cell-based
Sequence of GABAA receptor (α1, β2, and γ2s subunits, HEK-GABA) (P62813 28-455): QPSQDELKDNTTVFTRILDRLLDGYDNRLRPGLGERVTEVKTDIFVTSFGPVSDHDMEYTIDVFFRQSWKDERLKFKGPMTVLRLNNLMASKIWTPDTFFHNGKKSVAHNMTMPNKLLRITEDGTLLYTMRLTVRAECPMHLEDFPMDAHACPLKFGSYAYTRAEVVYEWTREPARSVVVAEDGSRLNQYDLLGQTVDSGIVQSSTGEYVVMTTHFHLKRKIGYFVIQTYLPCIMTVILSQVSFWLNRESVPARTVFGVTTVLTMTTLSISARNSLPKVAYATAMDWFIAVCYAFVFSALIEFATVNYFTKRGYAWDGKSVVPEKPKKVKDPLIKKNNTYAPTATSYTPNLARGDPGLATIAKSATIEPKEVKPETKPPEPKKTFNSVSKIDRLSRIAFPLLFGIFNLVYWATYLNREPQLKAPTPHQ
Sequence of GABAA receptor (α1, β2, and γ2s subunits, HEK-GABA) (P63138 25-474 limits assumed): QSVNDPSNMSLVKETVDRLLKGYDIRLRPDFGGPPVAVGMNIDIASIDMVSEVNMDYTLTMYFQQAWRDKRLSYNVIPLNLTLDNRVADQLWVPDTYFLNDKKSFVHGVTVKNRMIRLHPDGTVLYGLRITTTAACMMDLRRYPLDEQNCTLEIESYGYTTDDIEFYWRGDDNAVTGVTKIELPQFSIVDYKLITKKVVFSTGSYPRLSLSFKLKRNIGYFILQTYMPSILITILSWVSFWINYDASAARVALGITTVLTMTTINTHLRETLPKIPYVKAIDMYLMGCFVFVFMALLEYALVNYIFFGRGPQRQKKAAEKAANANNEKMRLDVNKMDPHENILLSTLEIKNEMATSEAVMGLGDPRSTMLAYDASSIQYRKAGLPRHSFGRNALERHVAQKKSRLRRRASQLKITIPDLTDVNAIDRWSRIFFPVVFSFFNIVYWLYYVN
Sequence of GABAA receptor (α1, β2, and γ2s subunits, HEK-GABA) (P18508 39-466): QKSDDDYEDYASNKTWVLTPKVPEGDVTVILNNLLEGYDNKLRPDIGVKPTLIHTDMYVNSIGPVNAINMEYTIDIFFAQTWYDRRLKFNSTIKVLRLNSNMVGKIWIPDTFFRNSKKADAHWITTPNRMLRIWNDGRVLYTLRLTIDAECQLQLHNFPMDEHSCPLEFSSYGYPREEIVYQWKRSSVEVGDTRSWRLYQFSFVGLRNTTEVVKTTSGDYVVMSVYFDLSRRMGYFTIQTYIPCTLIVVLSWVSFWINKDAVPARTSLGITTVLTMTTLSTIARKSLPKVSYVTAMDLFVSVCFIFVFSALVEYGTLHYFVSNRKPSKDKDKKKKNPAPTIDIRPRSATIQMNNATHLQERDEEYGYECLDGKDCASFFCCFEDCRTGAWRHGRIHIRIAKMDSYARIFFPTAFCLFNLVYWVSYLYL

[5] = target: T1, α1, β2, and γ2s subunits of the rat GABAA receptors (HEK-GABA cells); experiment: QP-DHM modulator mode; format: cell-based; conditions: maximum concentration of compound, with GABA at EC30, Fig. 3D
[6] = tested on: α1β2γ2 expressed in Xenopus oocytes; conditions: read-out: EC50 as modulator; cited from earlier work
[7] = Table 1, dose-response curves of validated hits

T1 sequence (P62813 28-455): as the sequence (P62813 28-455) above
T1 sequence (P63138 25-474 limits assumed): as the sequence (P63138 25-474 limits assumed) above
T1 sequence (P18508 39-466): as the sequence (P18508 39-466) above

CC(=O)OC1CCC2(C)C(CCC3C4CCC(C(C)=O)C4(C)CC(=O)C32)C1 (stereo not drawn)
result in blind agonist screen ([1]; natural products collection): negative

CN1CCc2cc3c(cc2[C@H]1[C@@H]1OC(=O)c2c1ccc1c2OCO1)OCO3 [(+)-Bicuculline]
IC50 (GABAA receptor; in the presence of 3 μM GABA): 900 nM | IC50 (GABAA receptor; in the presence of 10 μM GABA): 530 nM

CC[C@H](C)[C@H]1O[C@]2(C=C[C@@H]1C)C[C@@H]1C[C@@H](C/C=C(\C)[C@@H](O[C@H]3C[C@H](OC)[C@@H](O[C@H]4C[C@H](OC)[C@@H](O)[C@H](C)O4)[C@H](C)O3)[C@@H](C)/C=C/C=C3\CO[C@@H]4[C@H](O)C(C)=C[C@@H](C(=O)O1)[C@]34O)O2 [Avermectin B1a]
EC50 with electrophysiology relative to QP-DHM (fold higher) [2]: ~ 10 × | EC50 [1]: 6900 nM | Amplitude (%) [1, 7]: 94% | Hill Coefficient [1, 7]: 6.3 | Amplitude (%) ([1]; Table 2, avermectin family): 94% | Hill Coefficient ([1]; Table 2, avermectin family): 6.3

COc1cc2c(c(OC)c1OC)-c1ccc(OC)c(=O)cc1[C@@H](NC(C)=O)CC2 [Colchicine]
effect on GABA currents [3]: significantly inhibits GABA currents

NCCCC(=O)O [GABA]
electrophysiological response of wild-type HEK cells (Wild-type HEK cells): no electrophysiological response

COc1ccc(-c2ccc(=N)n(CCCC(=O)O)n2)cc1 [Gabazine]
IC50 (GABAA receptor; in the presence of 3 μM GABA): ~200 nM

NCc1cc(=O)[nH]o1 [Muscimol]
EC50 [1]: 200 nM | Amplitude (%) [1, 7]: 100% | Hill Coefficient [1, 7]: 1.9

CC[C@]1(O)C[C@@H]2CN(CCc3c([nH]c4ccccc34)[C@@](C(=O)OC)(c3cc4c(cc3OC)N(C)[C@H]3[C@@](O)(C(N)=O)[C@H](O)[C@]5(CC)C=CCN6CC[C@]43[C@@H]65)C2)C1 [STOCK1N-75293, Vindesine]
outcome of hits validation (activity and specificity for the GABAA receptor) [4]: marginal effect

CCN(C(C)=O)c1cccc(-c2ccnc3c(C#N)cnn23)c1 [Zaleplon]
effect of GABA increased to % of the maximum (GABA at 10 µM) [5]: 41% | EC50 [6]: 170 nM

Ivermectin
EC50 with electrophysiology relative to QP-DHM (fold higher) [2]: ~ 10 × | rise time relative to GABA (times longer) (GABAA receptor): about 500 times

Picrotoxin
IC50 (GABAA receptor; in the presence of 10 μM GABA): 3100 nM
